Source: article PMC3710446 (Journal of pharmaceutical sciences, 2011)

Columns and labels:
[1] = test system: SOPT2; assay: Influence of compounds on [3H]DADLE uptake in RGC-5 cells; assay type: cell-based, rat; conditions: compound 1 mM; for [3H]DADLE uptake in the presence of compound, % of control (Table 2): [3H]DADLE 10 nM, 30 min, control = 100; for stimulation of [3H]DADLE uptake: p < 0.001
[2] = test system: RGC-5 cells; assay: Uptake of FITC-labeled HIV-1 Tat47–57 in RGC-5 cells; assay type: cell-based, rat; conditions: FITC-Tat 25 nM, 15 min, NaCl-containing buffer, confocal microscopy
[3] = test system: SOPT1; assay: Uptake of [3H]deltorphin II in RGC-5 cells and influence of tripeptides; conditions: RGC-5 cells, deltorphin II 25 nM
[4] = test system: SOPT2; assay: Uptake of [3H]DADLE in RGC-5 cells; conditions: DADLE 25 nM, 30 min of incubation

Compound	[3H]DADLE uptake in the presence of compound, % of control (Table 2) [1]	stimulation of [3H]DADLE uptake [1]	further results
O=C1CC[C@@]2(O)[C@H]3Cc4ccc(O)c5c4[C@@]2(CCN3CC2CC2)[C@H]1O5 [Naltrexone, naltrexone]	150%	50%	
FITC-Tat47–57: Fluorescein isothiocyanate-conjugated Tat47–57 peptide			cellular uptake of FITC-labeled peptide (cell-associated green fluorescence) [2]: enters RGC-5 cells
CC(C)[C@H](NC(=O)[C@H](CCC(=O)O)NC(=O)[C@H](Cc1ccccc1)NC(=O)[C@@H](C)NC(=O)[C@@H](N)Cc1ccc(O)cc1)C(=O)N[C@H](C(=O)NCC(N)=O)C(C)C [Deltorphin II]			uptake of deltorphin II ([3]; absence of Na+): 1.1 ± 0.1 pmol/mg of protein/30 min; uptake of deltorphin II ([3]; presence of Na+): 3.6 ± 0.2 pmol/mg of protein/30 min
CC(C)C[C@@H](NC(=O)[C@H](Cc1ccccc1)NC(=O)CNC(=O)[C@@H](C)NC(=O)[C@@H](N)Cc1ccc(O)cc1)C(=O)O [DADLE, [D-Ala^2, D-Leu^5]-Enkephalin]			uptake in the presence of Na+ relative to uptake in the absence of Na+ [4]: 2–3 times
C=CCN1CC[C@]23c4c5ccc(O)c4O[C@H]2C(=O)CC[C@@]3(O)[C@H]1C5 [Naloxone, naloxone]	133%	33%	
